From patent publication US8202868B2, “4-piperazinyl-pyrimidine compounds suitable for treating disorders that respond to modulation of the dopamine D3 receptor” (Abbott GmbH & Co. KG, priority 2004, dated 2012)
Counter-ions that a name gives are not always drawn. Like-named read-outs stand apart in the source and are kept apart here.

Experiments:
[1] = target: T1, human dopamine D3 receptors (Homo sapiens, UniProt P35462); test: Dopamine D3 receptor binding, [125I]-iodosulpride displacement; details: for Ki: membranes of HEK-293 cells, 0.1 nM [125I]-iodosulpride, 25° C., 60 minutes; for Ki(D2)/Ki(D3): selectivity ratio of receptor binding constants
T1 construct: expressed in transfected cells; host or cells: HEK-293
Description: (§1) The substance to be tested was either dissolved in methanol/Chremophor® (BASF-AG) or in dimethyl sulfoxide and then diluted with water to the desired concentration.
(§2) Each assay mixture was run in triplicate.
The incubation buffer contained 50 mM tris, 120 mM NaCl, 5 mM KCl, 2 mM CaCl2, 2 mM MgCl2 and 0.1% bovine serum albumin, 10 μM quinolone and 0.1% ascorbic acid (prepared fresh daily). The buffer was adjusted to pH 7.4 with HCl.
(§3) After having been incubated at 25° C. for 60 minutes, the assay mixtures were filtered through a Whatman GF/B glass fiber filter under vacuum using a cell collecting device. The filters were transferred to scintillation viols using a filter transfer system. After 4 ml of Ultima Gold® (Packard) have been added, the samples were shaken for one hour and the radioactivity was then counted in a Beta-Counter (Packard, Tricarb 2000 or 2200CA). The cpm values were converted into dpm using a standard quench series and the program belonging to the instrument.
(§4) The inhibition curves were analyzed by means of iterative nonlinear regression analysis using the Statistical Analysis System (SAS) which is similar to the “LIGAND” program described by Munson and Rodbard.

[2] = target: T2, human dopamine D2L receptors (long isoform) (Homo sapiens, UniProt P14416); test: Dopamine D2L receptor binding, [125I] iodospiperone displacement
T2 construct: expressed in transfected cells; host or cells: HEK-293
Description: as §1, §2
The incubation buffer contained 50 mM tris, 120 mM NaCl, 5 mM KCl, 2 mM CaCl2, 2 mM MgCl2 and 0.1% bovine serum albumin. The buffer was adjusted to pH 7.4 with HCl.
as §3, §4

[3] = membranes of HEK-293 cells, 0.01 nM [125I] iodospiperone, 25° C., 60 minutes, read-out: Ki(D2)

T2 sequence (P14416 whole entry, canonical isoform): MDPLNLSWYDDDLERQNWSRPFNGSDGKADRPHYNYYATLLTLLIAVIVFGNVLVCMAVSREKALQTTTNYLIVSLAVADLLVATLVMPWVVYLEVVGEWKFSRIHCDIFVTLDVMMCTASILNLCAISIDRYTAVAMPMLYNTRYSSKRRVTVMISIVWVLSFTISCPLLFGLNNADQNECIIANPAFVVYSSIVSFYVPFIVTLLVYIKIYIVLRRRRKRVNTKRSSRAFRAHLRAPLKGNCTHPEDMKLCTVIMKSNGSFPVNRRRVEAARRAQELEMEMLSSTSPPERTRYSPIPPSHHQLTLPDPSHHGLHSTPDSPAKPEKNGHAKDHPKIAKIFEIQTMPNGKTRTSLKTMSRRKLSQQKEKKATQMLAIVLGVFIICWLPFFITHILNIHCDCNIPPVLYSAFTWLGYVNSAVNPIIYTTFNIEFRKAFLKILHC
T1 sequence (P35462 whole entry): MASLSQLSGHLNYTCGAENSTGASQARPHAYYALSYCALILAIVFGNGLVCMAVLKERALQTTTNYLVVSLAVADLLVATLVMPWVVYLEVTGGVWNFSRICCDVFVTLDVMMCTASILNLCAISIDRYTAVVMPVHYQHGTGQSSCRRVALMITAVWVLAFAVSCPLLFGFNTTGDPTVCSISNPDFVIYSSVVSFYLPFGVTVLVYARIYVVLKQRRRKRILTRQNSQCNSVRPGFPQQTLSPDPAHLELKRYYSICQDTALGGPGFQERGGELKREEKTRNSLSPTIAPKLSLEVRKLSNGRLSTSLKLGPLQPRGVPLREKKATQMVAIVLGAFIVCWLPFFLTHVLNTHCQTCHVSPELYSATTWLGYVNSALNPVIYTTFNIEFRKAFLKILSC

Compound | Ki [1] [µM] | Ki(D2)/Ki(D3) [1] | Ki [2, 3] [µM] | Ki [2] [µM]
Cn1c(SCCCN2CCN(c3cc(C4CC4)nc(C(C)(C)C)n3)CC2)nnc1-c1cnccn1 [Example 56, 2-tert-butyl-4-{4-[3-(5-pyrazin-4-methyl-4H-[1,2,4]triazol-3-ylsulfanyl)-propyl]-piperazin-1-yl}6-cyclopropyl-pyrimidine hydrochloride] | 0.00047 | 109 | 0.0512 | 
Cc1nnc(SCCCN2CCN(c3cc(C4CCC4)nc(C(C)(C)C)n3)CC2)s1.Cl [Example 2, 2-tert-Butyl-4-cyclobutyl-6-{4-[3-(5-methyl-[1,3,4]thiadiazol-2-ylsulfanyl)-propyl]-piperazin-1-yl}-pyrimidine hydrochloride] | 0.0014 | 96 | 0.135 | 
CC(C)(C)c1nc(C2CCC2)cc(N2CCN(CCCOc3ccnc(O)n3)CC2)n1 [Example 24, 4-{3-[4-(2-tert-Butyl-6-cyclobutyl-pyrimidin-4-yl)-piperazin-1-yl]-propoxy}-pyrimidin-2-ol] | 0.0012 | 93 | 0.112 | 
CC(C)(C)c1nc(C2CCC2)cc(N2CCN(CCCSc3ncccn3)CC2)n1.Cl [Example 4, 2-tert-Butyl-4-cyclobutyl-6-{4-[3-(pyrimidin-2-ylsulfanyl)-propyl]-piperazin-1-yl}-pyrimidine hydrochloride] | 0.0009 | 127 | 0.113 | 
C[C@@H](COc1nccc(O)n1)CN1CCN(c2cc(C3CCC3)nc(C(C)(C)C)n2)CC1 [Example 52] | 0.0112 | 82 | 0.926 | 
2-tert-Butyl-4-cyclobutyl-6-{4-[3-(1-methyl-1H-tetrazol-5-ylsulfanyl)-propyl]-piperazin-1-yl}-pyrimidine [Example 9] | 0.0041 | 106 | 0.432 | 
Cn1c(SCCCN2CCN(c3cc(C4CCC4)nc(C(C)(C)C)n3)CC2)nnc1C(F)(F)F [Example 42, 2-tert-Butyl-4-{4-[3-(4-methyl-5-trifluoromethyl-4H-[1,2,4]triazol-3-ylsulfanyl)-propyl]-piperazin-1-yl}-6-cyclobutyl-pyrimidine] | 0.002 | 203 | 0.405 | 
CC(C)(C)c1nc(C2CC2)cc(N2CCN(CCCOc3nccc(O)n3)CC2)n1 [Example 37, 2-{3-[4-(2-tert-Butyl-6-cyclopropyl-pyrimidin-4-yl)-piperazin-1-yl]-propoxy}-pyrimidin-4-ol] | 0.0071 | 51 | 0.359 | 
Cc1nnc(SCCCN2CCN(c3cc(C4CCC4)nc(C(C)(C)C)n3)CC2)n1C.O=C(O)/C=C/C(=O)O [Example 43, 2-tert-Butyl-4-{4-[3-(4-methyl-5-methyl-4H-[1,2,4]triazol-3-ylsulfanyl)-propyl]-piperazin-1-yl}-6-cyclobutyl-pyrimidine fumarate] | 0.0015 | 210 | 0.305 | 
Cl.Cn1cccc1-c1nnc(SCCCN2CCN(c3cc(C4CCC4)nc(C(C)(C)C)n3)CC2)n1C [Example 66, 2-tert-Butyl-4-cyclobutyl-6-(4-{3-[4-methyl-5-(1-methyl-1H-pyrrol-2-yl)-4H-[1,2,4]triazol-3-ylsulfanyl]-propyl}-piperazin-1-yl)-pyrimidine hydrochloride] | 0.00096 | 106 | 0.102 | 
Cn1c(SCCCN2CCN(c3cc(C4CCC4)nc(C(C)(C)C)n3)CC2)nnc1C1CC1.O=C(O)/C=C/C(=O)O [Example 44, 2-tert-Butyl-4-{4-[3-(4-methyl-5-cyclopropyl-4H-[1,2,4]triazol-3-ylsulfanyl)-propyl]-piperazin-1-yl}-6-cyclobutyl-pyrimidine fumarate] | 0.0006 | 250 | 0.142 | 
Cn1cnnc1SCCCN1CCN(c2cc(C3(C)CC3)nc(C(C)(C)C)n2)CC1 [Example 53, 2-tert-butyl-4-{4-[3-(4-methyl-4H-[1,2,4]triazol-3-ylsulfanyl)-propyl]-piperazin-1-yl}-6-(1-methyl)cyclopropyl-pyrimidine] | 0.0012 | 50 | 0.058 | 
CC(C)(C)c1nc(C2CCC2)cc(N2CCN(CCCCNC(=O)c3ccc(F)cc3)CC2)n1.Cl [Example 10, N-{4-[4-(2-tert-Butyl-6-cyclobutyl-pyrimidin-4-yl)-piperazin-1-yl]-butyl}-4-fluoro-benzamide hydrochloride] | 0.0005 | 163 | 0.087 | 
CC(C)(C)c1nc(C2CCC2)cc(N2CCN(CCCSc3nncs3)CC2)n1 [Example 1, 2-tert-Butyl-4-cyclobutyl-6-{4-[3-([1,3,4]thiadiazol-2-ylsulfanyl)-pronyl]-piperazin-1-yl}-pyrimidine] | 0.0009 | 54 |  | 0.049

The remaining compounds from weak to strong by Ki [1], led by results:

Ki [1] [µM] | Ki(D2)/Ki(D3) [1] | Ki [2, 3] [µM] | Compound | Ki [2] [µM]
0.0221 | 36 | 0.797 | Cn1cnnc1SCCCN1CCN(c2cc(C(F)(F)F)nc(C3(C)CC3)n2)CC1 [Example 65, 2-(1-Methyl-cyclopropyl)-4-{4-[3-(4-methyl-4H-[1,2,4]triazol-3-ylsulfanyl)-propyl]-piperazin-1-yl}-6-trifluoromethyl-pyrimidine] | 
0.0048 | 70 | 0.337 | CC(C)(C)c1nc(C2CCC2)cc(N2CCN(CCCOc3nccc(O)n3)CC2)n1 [Example 26, 2-{3-[4-(2-tert-Butyl-6-cyclobutyl-pyrimidin-4-yl)-piperazin-1-yl]-propoxy}-pyrimidin-4-ol] | 
0.0038 | 154 | 0.587 | Cl.Cn1nnnc1SCCCN1CCN(c2cc(C3CC3)nc(C(C)(C)C)n2)CC1 [Example 35, 2-tert-Butyl-4-cyclopropyl-6-{4-[3-(1-methyl-1H-tetrazol-5-ylsulfanyl)-propyl]-piperazin-1-yl}-pyrimidine hydrochloride] | 
0.0026 | 40 | 0.104 | Cn1c(OCCCN2CCN(c3cc(C4(C)CC4)nc(C(C)(C)C)n3)CC2)nnc1-c1ccccc1 [Example 63, 2-tert-Butyl-4-(1-methyl-cyclopropyl)-6-{4-[3-(4-methyl-5-phenyl-4H-[1,2,4]triazol-3-yloxy)-propyl]-piperazin-1-yl}-pyrimidine] | 
0.0021 | 107 | 0.222 | CC(C)(C)c1nc(C2CCC2)cc(N2CCN(CCCOc3ncccn3)CC2)n1.Cl [Example 27, 2-tert-Butyl-4-cyclobutyl-6-{4-[3-(pyrimidin-2-yloxy)-propyl]-piperazin-1-yl}-pyrimidine hydrochloride] | 
0.0019 | 253 | 0.484 | Cl.Cn1c(SCCCN2CCN(c3cc(C4CC4)nc(C(C)(C)C)n3)CC2)nnc1C(F)(F)F [Example 47, 2-tert-Butyl-4-{4-[3-(4-methyl-5-trifluoromethyl-4H-[1,2,4]triazol-3-ylsulfanyl)-propyl]-piperazin-1-yl}-6-cyclopropyl-pyrimidine hydrochloride] | 
0.0016 | 92 | 0.147 | Cn1c(OCCCN2CCN(c3cc(C4CCC4)nc(C(C)(C)C)n3)CC2)nnc1-c1ccccc1 [Example 64, 2-tert-Butyl-4-cyclobutyl-6-{4-[3-(4-methyl-5-phenyl-4H-[1,2,4]triazol-3-yloxy)-propyl]-piperazin-1-yl}-pyrimidine] | 
0.0013 | 314 | 0.405 | Cn1cnnc1SCCCN1CCN(c2cc(C3CCC3)nc(C(C)(C)C)n2)CC1 [Example 41, 2-tert-Butyl-4-{4-[3-(4-methyl-4H-[1,2,4]triazol-3-ylsulfanyl)-propyl]-piperazin-1-yl}-6-cyclobutylpyrimidine] | 
0.0012 | 234 | 0.272 | Cc1nnc(SCCCN2CCN(c3cc(C4CC4)nc(C(C)(C)C)n3)CC2)n1C.Cl [Example 45, 2-tert-Butyl-4-{4-[3-(4-methyl-5-methyl-4H-[1,2,4]triazol-3-ylsulfanyl)-propyl]-piperazin-1-yl}-6-cyclopropyl-pyrimidine hydrochloride] | 
0.0011 | 71 | 0.077 | CC(C)(C)c1nc(C2CCC2)cc(N2CCN(CCCCc3nccc(O)n3)CC2)n1 [Example 34, 2-{4-[4-(2-tert-Butyl-6-cyclobutyl-pyrimidin-4-yl)-piperazin-1-yl]-butyl}-pyrimidin-4-ol] | 
0.001 | 121 | 0.115 | CC(C)(C)c1nc(C2CCC2)cc(N2CCN(CCCCNC(=O)c3cccnc3)CC2)n1 [Example 12, N-{4-[4-(2-tert-Butyl-6-cyclobutyl-pyrimidin-4-yl)-piperazin-1-yl]-butyl}-nicotinamide] | 
0.0009 | 150 | 0.137 | CC(C)(C)c1nc(C2CCC2)cc(N2CCN(CCCCNC(=O)c3ccncc3)CC2)n1.Cl [Example 11, N-{4-[4-(2-tert-Butyl-6-cyclobutyl-pyrimidin-4-yl)-piperazin-1-yl]-butyl}-isonicotinamide hydrochloride] | 
